Results from patent publication US12640054B2, “Computational in silico model for placental barrier” (CFD Research Corporation, priority 2022, dated 2026).
Counter-ions that a name gives are not always drawn.

Legend:
[1] = test system: in vitro placenta device (coculture of Bewo trophoblasts and HUVEC); assay: Maternal-placental size exclusion (permeability index) in the in vitro placenta device; type: in vitro ADME, human; conditions: injected into the maternal vascular channel at 0.1 μL/min for 1 hour; FIG. 9B
Method: Again, devices can be placed in the incubator.
In another example, one embodiment of the present invention was used to evaluate maternal-placental size exclusion, where a fluorescein sodium salt (FSS) solution was injected into the maternal vascular channel at 0.1 μL/min for 1 hour. […] PI was expected to decrease as a function of compound molecular weight.

[2] = test system: intervillous space - trophoblast barrier; assay: Morphological effects of toxic exposure in the in vitro placenta device; type: cell-based; conditions: injected into the maternal channel at 3 μL/min for 4 min, incubated at 37° C. for 15 min; FIG. 10
Source text: In some embodiments, the in vitro placental model device can be used for studying toxicity of test agents to the placenta. Certain compounds not only induce fetal toxicity upon crossing the placental barrier, but also disrupt the barrier itself. The microfluidic placental barrier model can be used to study response to toxic exposure of test agents. The impact to barrier function can be assessed through permeability comparisons and toxicity (e.g., cytotoxicity, etc.) can be assessed off chip by various methods (e.g., cell lysate luminescence assay, genomic analysis, etc.).
For example, an in vitro placenta device was exposed to trypan blue by injection into the maternal channel at 3 μL/min for 4 min and then incubated at 37° C. for 15 min, similar to protocols in literature^7,8. […] White arrows show barrier degradation, and dark arrows show apoptosis following trypan blue exposure.

trophoblast channel = assay: Cytotoxicity by adenylate kinase release (luminescence); type: cell-based; conditions: samples from the trophoblast channel; FIG. 11
Method: Following exposure, FSS was injected into the maternal channel and permeability assayed. Permeability in the devices was 10-fold higher in trypan blue treated devices compared to controls. An additional assay was performed to determine cytotoxicity as it relates to the release of adenylate kinase. A positive control (100% death by lysis buffer) and a negative control (media only) were included for comparison. Samples were taken from the trophoblast channel and placed in a low volume, white walled […] plate for luminescence analysis using a plate reader. […] The increase in AK release in arbitrary luminescence units compares the toxic exposure of trypan blue to positive and negative controls.

SMILES | increase in average PI compared to 4 kD TRITC-dextran [1] [fold] | morphological effects of exposure [2] | increase in adenylate kinase release (trophoblast channel) [fold]
O=C1OC2(c3ccc(O)cc3Oc3cc(O)ccc32)c2ccccc21 [FSS, fluorescein sodium salt] | ~2 |  | 
Cc1cc(-c2ccc(/N=N/c3c(S(=O)(=O)O)cc4cc(S(=O)(=O)O)cc(N)c4c3O)c(C)c2)ccc1/N=N/c1c(S(=O)(=O)O)cc2cc(S(=O)(=O)O)cc(N)c2c1O [trypan blue] |  | barrier degradation (e.g., cell death and detachment) and apoptosis | 1.5
